Assay results from patent publication US20260146044A1, “AROMATIC COMPOUND, PHARMACEUTICAL COMPOSITION CONTAINING SAME, AND USE THEREOF” (Increland, priority 2023, published 2026).
Values belong to the compound of their own block, whether it stands above or below them.

How the values were obtained:
[1] = system: secretion levels of IL-6 in PBMC cells; assay: Inhibition of LPS+IL-1β-induced IL-6 secretion in PBMC (IL-6 ELISA); type: cell-based; details: human PBMC, 24 h compound pre-incubation, 20 h stimulation
Description: This experiment was carried out in RPMI 1640 medium containing 10% FBS/1% penicillin/streptomycin, with each of the compounds at an initial test concentration of 1 μM. The compound DMSO was dissolved to form a stock solution, which was gradiently diluted 5-fold with the culture medium to a 4× working solution concentration. The diluted solution was added to a 96-well plate with 50 μL per well. PBMC (batch No.: HPP20062307, Sichuan Hope Bio-tech Co., Ltd.) cells were counted, and diluted to a concentration of 2×10^6/mL. The diluted cells were added to the above compound-containing 96-well plate with 150 μL per well, fully mixed, and incubated in an incubator with 5% CO2 at 37° C. for 24 h. Then, LPS and […] were further added to final concentrations of 10 ng/mL and 20 ng/mL, respectively, and the cells were further incubated in the incubator with 5% CO2 at 37° C. for 20 h. Then, after centrifugation at 2,000 rpm for 4 min, the supernatant was diluted 110×, and detected using an IL-6 ELISA kit. An OD450 value was read, and converted to an IL-6 concentration based on a standard curve, to calculate an IC50 value by fitting a dose-effect curve using GraphPad 5.0.

[2] = target: T1, IRAK4 protein (Homo sapiens, UniProt Q9NWZ3); assay: IRAK4 protein degradation in THP1 cells (Western blot); type: cell-based; details: 24 h
T1 construct: Effects of Compounds on IRAK4 Protein Degradation in THP1 Cells; endogenous in cells; host or cells: THP-1 cells
T1 sequence (Q9NWZ3 1-460): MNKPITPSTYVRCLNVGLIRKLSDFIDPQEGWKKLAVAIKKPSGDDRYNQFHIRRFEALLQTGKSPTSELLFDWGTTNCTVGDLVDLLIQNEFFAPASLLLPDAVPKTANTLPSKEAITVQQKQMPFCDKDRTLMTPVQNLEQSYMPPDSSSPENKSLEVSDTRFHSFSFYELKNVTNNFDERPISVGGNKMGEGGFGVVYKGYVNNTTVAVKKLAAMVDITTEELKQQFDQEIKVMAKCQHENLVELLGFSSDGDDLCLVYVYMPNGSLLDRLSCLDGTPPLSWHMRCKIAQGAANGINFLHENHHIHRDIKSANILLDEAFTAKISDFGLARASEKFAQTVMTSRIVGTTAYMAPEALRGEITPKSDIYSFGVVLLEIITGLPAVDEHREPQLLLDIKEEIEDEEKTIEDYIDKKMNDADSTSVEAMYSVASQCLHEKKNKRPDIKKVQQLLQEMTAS
Description: THP-1 cells were inoculated into a 96-well cell culture plate, with 5×10^4 cells and 100 μL of a culture medium per well. The cell culture plate was cultured in an incubator with 5% CO2 at 37° C. overnight. 100 nl of a well-prepared compound stock solution and a compound-free DMSO stock solution were respectively added to cells per well. The cell culture plate was incubated in an incubator with 5% CO2 at 37° C. for 24 h. One protease inhibitor tablet and one phosphatase inhibitor tablet were added to 20 mL of a cell lysis buffer, and they were gently mixed until complete dissolution. DTT at a final concentration of 200 mM was added to a 4× sample preparation buffer to prepare a 4× sample preparation working solution. 20× electrophoretic buffer was diluted to 1× with ultrapure water. 20× transfer buffer was diluted to 1× with ultrapure water, and 20% methanol was added. […] IRAK4 protein primary antibody working solution: 20 μl of IRAK4 antibody added to 20 mL of a blocking solution; β-Actin primary antibody working solution: 2 μl of beta-actin (13E5) Rabbit mAb antibody added to 20 mL of a blocking solution. IRAK4 protein secondary antibody working solution: Donkey Anti-Goat IgG H&L (HRP) diluted 1/5,000 in a blocking solution; 3-Actin secondary antibody working solution: Anti-rabbit IgG, RP-linked antibody diluted 1/10,000 in a blocking solution. The cell culture plate was centrifuged at 3,000 rpm for 3 min, and most of the culture medium was carefully pipetted. The cell plate was inverted, and centrifuged at 300 rpm for 30 s. 45 μL of a lysis buffer was added to each well. The mixture was shaken at 300 rpm for 30 s, allowed to stand on ice for 30 min, and pipetted 30 times at 20 min. 6 μL of 4× sample preparation working solution was added to 18 μL of protein supernatant for sample preparation, and the mixture was heated at 70° C. for 10 min. Remaining protein samples were stored at −80° C. In the precast gel, 8 μl of sample was loaded into each well for electrophoresis at a constant voltage of 120 V for about 60 min, transferred using a PVDF membrane at a constant current of 300 mA for 1 h, then blocked with a blocking solution at room temperature for 1 h, and incubated in a primary antibody working solution at 4° C. overnight. The membrane was washed with 1×TBST buffer for 3×10 min. The secondary antibody working solution was incubated at room temperature for 1 h. The membrane was washed with 1×TBST buffer for 3×10 min, and a chromogenic solution was used for exposure and color development.

[3] = Pharmacokinetic experiment on mice (iv and ig); type: in vivo; details: mouse, plasma; for bioavailability: ig 5.00 mg/kg vs iv 1.00 mg/kg, read-out: Oral bioavailability Fobs (%); for Cmax: read-out: Peak plasma concentration Cmax
[4] = Pharmacokinetic experiment on SD rats (iv and ig); type: in vivo; details: Sprague-Dawley, rat, plasma; for Cmax: read-out: Peak plasma concentration Cmax; for bioavailability: ig 5.00 mg/kg vs iv 1.00 mg/kg, read-out: Oral bioavailability Fobs (%)
Description: Pharmacokinetic experiment on SD rats: in this experiment, two administration modes: oral intragastric administration and tail vein injection were selected. Each of the compounds of the present patented invention was administered at an oral dose of 5 mg/kg at an administration volume of 10 mL/kg. […] Appropriate amounts of Solutol and H2O were proportionally added sequentially, and fully mixed ultrasonically by vortexing, to prepare a clear drug solution at 0.5 mg/mL. ICL004-protodrug was administered by intravenous injection at a dose of 1 mg/kg at an administration volume of 10 mL/kg. Right before use, an appropriate amount of the drug was accurately weighed, to prepare a final volume of 20% PEG 400 and 80% Saline. Appropriate amounts of PEG 400 and Saline were proportionally added sequentially, and fully mixed ultrasonically by vortexing, to prepare a clear drug solution at 0.1 mg/mL.
6 SD rats, each with body weight of 180-220 g, were randomly grouped into 2 groups. After fasting but with free access to water overnight, each […] in the first group was administered by gavage. 200 μL of blood was sampled from its eye socket into an anticoagulant tube respectively at each time point of 15 min, 30 min, 1 h, 2 h, 4 h, 6 h, 8 h, and 24 h after administration. Within one h, each of the blood samples was centrifuged at 10,000 rpm at 4° C. for 20 min (the sample was stored on an ice box prior to the centrifugation), and the supernatant (i.e., the plasma) was stored in a refrigerator at −20° C. for LC-MS/MS analysis. 200 μL of blood was sampled from the eye socket of each […] in the second group into an anticoagulant tube respectively at each time point of 5 min, 15 min, 30 min, 1 h, 2 h, 4 h, 8 h, and 24 h after administration by intravenous injection. Within one h, each of the blood samples was centrifuged at 10,000 rpm at 4° C. for 20 min (the blood sample was stored on an ice box prior to the centrifugation), and the supernatant, i.e., the plasma, was stored in a refrigerator at −20° C. for LC-MS/MS analysis.

[5] = Metabolic stability in human liver microsome; details: liver microsomes
Description: (§1) Blank incubation plates T60 and NCF60 were preheated for 10 min; liver microsome was diluted to 0.56 mg/mL in 100 mM phosphate buffer, 445 μL of the microsome working solution (0.56 mg/mL) was transferred to the preheated “incubation” plates T60 and NCF60, and then the incubation plates T60 and NCF60 were pre-incubated with continuous shaking at 37° C. for 10 min. 54 μL of the liver microsome was transferred to a blank plate, then 6 μL of a NAPDH cofactor was added to the blank plate, and then 180 μL of a quenching solution was added to the blank plate; 5 µL of a composite working solution (100 μM) was added to each of the microsome-containing incubation plates (T60 and NCF60), and the mixture was thoroughly mixed 3 times; 50 μL of a buffer was added to the NCF60 plate, and the mixture was thoroughly mixed 3 times. Timing was started; the plates were incubated with shaking at 37° C. for 60 min; and 180 μL of a quenching solution and 6 μL of the NAPDH cofactor were added to a quenching plate TO. The plates were ensured to be cooled to prevent evaporation. For the T60 plate, the mixture was thoroughly mixed 3 times, and 54 μL of the mixture was immediately transferred to the quenching plate at the time point of 0 min. Then, 44 μL of the NAPDH cofactor was added to the incubation plate (T60). Timing was started; and the plate was incubated with shaking at 37° C. for 60 min. At 5, 15, 30, 45, and 60 min, 180 μL of the quenching solution was added to the quenching plate, mixed once, and then 60 μL of sample was continuously transferred from the plate T60 to the quenching plate at each time point.
(§2) For NCF60, the mixture was mixed once, and at the time point of 60 min, 60 μL of sample was transferred from the NCF60 incubator to the quenching solution-containing quenching plate. All sampling plates were shaken for 10 min, then centrifuged at 4,000 rpm at 4° C. for 20 min. 80 µL of the supernatant was transferred to 240 μL of HPLC water, and mixed using a plate shaker for 10 min.

[6] = Metabolic stability in mouse liver microsome; details: liver microsomes
Description: as §1, §2

[7] = system: secretion levels of IL-6 in PBMC cells; assay: Inhibition of R848-induced IL-6 secretion in PBMC (IL-6 ELISA); type: cell-based; details: human PBMC, 20 h compound pre-incubation, 24 h stimulation
Description: This experiment was carried out in RPMI 1640 medium containing 10% FBS/1% penicillin/streptomycin, with each of the compounds at an initial test concentration of 1 μM. The compound DMSO was dissolved to form a stock solution, which was gradiently diluted 4-fold with the culture medium to a 4× working solution concentration. The diluted solution was added to a 96-well plate with 50 μL per well. PBMC (batch No.: HPP20062307, Sichuan Hope Bio-tech Co., Ltd.) cells were counted, and diluted to a concentration of 2×10^6/mL. The diluted cells were added to the above compound-containing 96-well plate with 150 μL per well, fully mixed, and incubated in an incubator with 5% CO2 at 37° C. for 20 h. Then, R848 was further added until a final concentration of […], and the cells were further incubated in the incubator with 5% CO2 at 37° C. for additional 24 h. Then, after centrifugation at 2,000 rpm for 4 min, the supernatant was diluted 110×, and detected using an IL-6 ELISA kit. An OD450 value was read, and converted to an IL-6 concentration based on a standard curve, to calculate an IC50 value by fitting a dose-effect curve using GraphPad 5.0.

[8] = po, BALB/c Mice, ig, 5.00 mg/kg

SMILES: Cc1nn(C2CCC(=O)NC2=O)c2cccc(OC3CCN(C[C@H]4CC[C@H](n5cc6cc(NC(=O)c7cnn8cccnc78)c(N7CCOCC7)cc6n5)CC4)CC3)c12 (stereo partly drawn) [TM-56]
IC50 [1]: 5.49 nM | bioavailability ([3]; po, ICR Mice): 91.9% | AUC ([3]; po, ICR Mice, ig, 5.00 mg/kg): 2510 ng·h/mL | AUC(0-inf) ([3]; po, ICR Mice, ig, 5.00 mg/kg): 2820 ng·h/mL | Cmax ([3]; po, ICR Mice, ig, 5.00 mg/kg): 220 ng/mL | AUC ([3]; ICR Mice, iv, 1.00 mg/kg): 524 ng·h/mL | AUC(0-inf) ([3]; ICR Mice, iv, 1.00 mg/kg): 613 ng·h/mL | Cmax ([3]; ICR Mice, iv, 1.00 mg/kg): 81 ng/mL | AUC ([4]; iv, 1.00 mg/kg): 1900 ng·h/mL | AUC(0-inf) ([4]; iv, 1.00 mg/kg): 1980 ng·h/mL | Cmax ([4]; iv, 1.00 mg/kg): 477 ng/mL | bioavailability ([4]; po): 10.7% | AUC ([4]; po, ig, 5.00 mg/kg): 1060 ng·h/mL | AUC(0-inf) ([4]; po, ig, 5.00 mg/kg): 1120 ng·h/mL | Cmax ([4]; po, ig, 5.00 mg/kg): 96 ng/mL | half-life at 1 µM [5]: 80.8 min | half-life at 1 µM [6]: 70.1 min

SMILES: Cc1nn(C2CCC(=O)NC2=O)c2cccc(N3CC4CN(C[C@H]5CC[C@H](n6cc7cc(NC(=O)c8cnn9cccnc89)c(N8CCO[C@H](C)C8)cc7n6)CC5)CC4C3)c12 (stereo partly drawn) [TM-55]
IC50 [7]: 5.09 nM | IC50 [1]: 7.63 nM | DC50 [2]: 4.81 nM

SMILES: Cn1c(=O)n(C2CCC(=O)NC2=O)c2cccc(C#CCOC3CCN(C[C@H]4CC[C@H](n5cc(NC(=O)c6cnn7ccc(N8C[C@H]9C[C@@H]8CO9)nc67)c(C(F)F)n5)CC4)CC3)c21 (stereo partly drawn) [Positive compound, reference compound]
IC50 [7]: 38.5 nM | IC50 [1]: 38.4 nM | half-life at 1 µM [5]: 39.4 min | half-life at 1 µM [6]: 29.4 min

SMILES: Cc1nn(C2CCC(=O)NC2=O)c2cccc(N3CCC(CN4CCC(N5Cc6cc(NC(=O)c7cnn8cccnc78)c(N(C)C)cc6C5=O)CC4)CC3)c12 (stereo not drawn) [TM-66]
IC50 [7]: 262 nM | IC50 [1]: 19.4 nM | DC50 [2]: 0.57 nM

Second part, led by results:

DC50 [2]: 0.58 nM
SMILES: Cc1nn(C2CCC(=O)NC2=O)c2cccc(N3CCCN(C[C@H]4CC[C@H](n5cc6cc(NC(=O)c7cnn8cccnc78)c(N(C)C)cc6n5)CC4)CC3)c12 (stereo partly drawn) [TM-96]
IC50 [1]: 7.18 nM

DC50 [2]: < 0.1 nM | bioavailability ([3]; po, BALB/c Mice): 20.1% | AUC [3, 8]: 3370 ng·h/mL | AUC(0-inf) [3, 8]: 3550 ng·h/mL | Cmax [3, 8]: 356 ng/mL | AUC ([3]; BALB/c Mice, iv, 1.00 mg/kg): 3390 ng·h/mL | AUC(0-inf) ([3]; BALB/c Mice, iv, 1.00 mg/kg): 3520 ng·h/mL | Cmax ([3]; BALB/c Mice, iv, 1.00 mg/kg): 580 ng/mL | AUC ([4]; iv, 1.00 mg/kg): 625 ng·h/mL | AUC(0-inf) ([4]; iv, 1.00 mg/kg): 674 ng·h/mL | Cmax ([4]; iv, 1.00 mg/kg): 151 ng/mL | bioavailability ([4]; po): 11.1% | AUC ([4]; po, ig, 5.00 mg/kg): 374 ng·h/mL | AUC(0-inf) ([4]; po, ig, 5.00 mg/kg): 435 ng·h/mL | Cmax ([4]; po, ig, 5.00 mg/kg): 23 ng/mL
SMILES: Cc1nn(C2CCC(=O)NC2=O)c2cccc(N3CCC4(CC3)CN(C[C@H]3CC[C@H](n5cc6cc(NC(=O)c7cnn8cccnc78)c(N(C)C)cc6n5)CC3)C4)c12 (stereo partly drawn) [TM-101]
IC50 [1]: 1.17 nM

DC50 [2]: 0.9 nM
SMILES: Cc1nn(C2CCC(=O)NC2=O)c2cccc(N3CC4CN(C[C@H]5CC[C@H](n6cc7cc(NC(=O)c8cnn9cccnc89)c(N(C)C)cc7n6)CC5)CC4C3)c12 (stereo partly drawn) [TM-102]
IC50 [1]: 5.94 nM

DC50 [2]: 0.044 nM
SMILES: Cc1nn(C2CCC(=O)NC2=O)c2cncc(N3CCC(CN4CCC(n5cc6cc(NC(=O)c7cnn8cccnc78)c(N(C)C)cc6n5)CC4)CC3)c12 (stereo not drawn) [TM-106]
IC50 [1]: 54.9 nM

DC50 [2]: 1.06 nM
SMILES: Cc1nn(C2CCC(=O)NC2=O)c2ccnc(N3CCC4(CC3)CN(C[C@H]3CC[C@H](n5cc6cc(NC(=O)c7cnn8cccnc78)c(N(C)C)cc6n5)CC3)C4)c12 (stereo partly drawn) [TM-113]
IC50 [1]: 0.62 nM
